Experimental findings from US11865105B2, “Sphingosine pathway modulating compounds for the treatment of cancers” (Enzo Biochem, Inc., priority 2017, dated 2024) are described below.

In one data set the test system is Huh7 cells. In words: Apoptosis/necrosis assay (flow cytometry, GFP Certified Apoptosis/Necrosis detection kit). It is filed as cell-based, human. Conditions: 24 hours, SK1-I 10, 20, 40 μM, ozanimod 5, 10, 20 μM, ABC294640 10, 20, 40 μM. As for the experimental part: (§1) Apoptosis/necrosis assays evaluating the effect of different concentrations of each of ozanimod, ABC294640 and SK1-I on the four human hepatocellular carcinoma cell lines, Hep G2, Hep 3B, Huh 7 and PLC-PRF5 were also performed.
(§2) The protocol used for the apoptosis assays was: • Plated cells in 6-well plates and incubated at 37° C. overnight. • Prepared concentrations of test compound and control compound DMSO in media. • Ozanimod: 5 μM, 10 μM, and 20 μM. • ABC294640: 10 μM, 20 μM, and 40 μM. • SK1-I: 10 μM, 20 μM, and 40 μM. • Control: 0.2% DMSO. • Aspirated the medium from the 6-well plates and added test compound concentrations in media or 0.2% DMSO control in media. Incubated at 37° C. for 24 hours. • Collected and processed the cells following the flow cytometry protocol of the GFP Certified® Apoptosis/Necrosis detection kit from Enzo Life Sciences, Inc. (product no. ENZ-51002; Farmingdale, NY, USA).
(§3) FIGS. 5-16 present graphs plotting the data from these 24-hour apoptosis assays for the different concentrations of compounds and no-drug control for the various cell lines. Channel FL2 picks up the apoptosis signal and channel FL3 picks up the necrosis signal. Data points in Quadrant 3 (Q3) in the graphs corresponds to cells undergoing apoptosis (cells positive for the apoptosis detection reagent of the assay). Data points in Quadrant 2 (Q2) in the graphs corresponds to cells that are positive for the apoptosis detection reagent and positive for the necrosis detection reagent of the assay (indicative of late-stage apoptosis).
Background: A flow cytometer gives signals particle by particle.

In another data set the test system is PLC-PRF5 cells. Described as above. Conditions: 24 hours, SK1-I 10, 20, 40 μM, ozanimod 5, 10, 20 μM, ABC294640 10, 20, 40 μM. It is filed as cell-based, human. As for the experimental part:
as §1, §2, §3

A further data set deals with Hep 3B cells. The data set is described as above. Format: cell-based, human. The note with it: 24 hours, SK1-I 10, 20, 40 μM, ozanimod 10, 20, 40 μM, ABC294640 10, 20, 40 μM. As for the experimental part:
as §1
(§4) The protocol used for the apoptosis assays was: • Plated cells in 6-well plates and incubated at 37° C. overnight. • Prepared […], 20 μM, and 40 μM. • SK1-I: 10 μM, 20 μM, and 40 μM. • Control: 0.2% DMSO. • Aspirated the medium from the 6-well plates and added test compound concentrations in media or 0.2% DMSO control in media. Incubated at 37° C. for 24 hours. • Collected and processed the cells following the flow cytometry protocol of the GFP Certified® Apoptosis/Necrosis detection kit from Enzo Life Sciences, Inc. (product no. ENZ-51002; Farmingdale, NY, USA).
as §3

Another data set relates to Hep G2 cells. The data set is described as above. It is filed as cell-based, human. The note with it: 24 hours, SK1-I 10, 20, 40 μM, ozanimod 10, 20, 40 μM, ABC294640 10, 20, 40 μM. The method, then:
as §1, §4, §3

The test system of data set [1] is Jurkat cells (human T-cell leukemia cell line). In words: Apoptosis assay. It is filed as cell-based. The note with it: SK1-I 10, 20 μM, ozanimod 5, 10 μM. The method, then: as §2, §3
In data set [2] the test system is primary human hepatocytes. Nature of the data set: Apoptosis assay on normal (non-cancerous) primary human hepatocytes. It is filed as cell-based. The note with it: 24 hours; SK1-I 10, 20, 40 μM; ozanimod 2.5, 5, 10 μM; any concentration tested. As for the experimental part:
In still further experiments, the effects of SK1-I and ozanimod on normal (non-cancerous) primary human hepatocytes were investigated. Fresh human hepatocytes in a 12-well plate (HUF12) were obtained from Triangle Research Labs (Durham, NC, USA; part of Lonza Group) and handled according to the supplier's protocol. The shipping medium was aspirated from each well and replaced with 1 ml per well of warm Hepatocyte Maintenance Medium. The plate was then placed in a 5% CO2 incubator at 37° C. and the hepatocytes were allowed to acclimate overnight. The Hepatocyte Maintenance Medium was replaced before treatment with drug or no-drug control, and the hepatocytes were treated with 0 μM (no-drug control), 10 μM, 20 μM, or 40 μM SK1-I or 0 μM, 2.5 μM, 5 μM, or 10 μM ozanimod for 24 hours under incubation. The cells were then harvested and analyzed using the GFP Certified® Apoptosis/Necrosis detection kit. The results are shown in FIGS. 19A-D for SK1-I and FIGS. 20A-D for ozanimod as follows.

In the next data set the test system is Jurkat cells. In words: Cell viability effects (FIG. 21). Format: cell-based, human. Conditions: Jurkat cells without IL-2; 5 μM of each agent.
For data set [3], the system named is human hepatocellular carcinoma cell lines, Hep G2, Huh 7, and PLC-PRF5. Nature of the data set: MTT cell viability assay (48 hours). It is filed as cell-based. Conditions: Hep G2, Huh 7, PLC-PRF5. As for the experimental part: The following MTT assay protocol was followed. • Prepared stock solutions: 50 mM ozanimod, 50 mM ABC294640, 10 mM SK1-I in DMSO. • Plated 20000 cells in 160 μl medium per well in 96-well plates for each cell line and incubated at 37° C. overnight. • Prepared compound serial dilutions: for ozanimod and ABC294640: dilute stock 50 mM 1:50 in medium to 1000 μM; for SK1-I, dilute stock 10 mM 1:50 in medium to […] them make serial 1:1.8 fold serial dilution to the titration. For negative control, diluted DMSO 1:50 to medium. • Added 40 μl negative control and serially titrated compounds to 160 μl of cells for each cell line. Performed in triplicate for each cell line. • Incubated at 37° C. for 72 hours. • Performed assay using Vybrant MTT Cell Proliferation Assay kit (V-13154) (Molecular Probes) from Thermo Fisher Scientific (Waltham, MA USA).
48-hour treatment MTT assays were also performed as follows.
Background: Tetrazolium dyes change colour on reduction, which living cells bring about.

For the compound `O=C(NCc1ccncc1)C12CC3C[C@H](C1)CC(c1ccc(Cl)cc1)(C3)C2` [ABC294640, (7 S)-3-(4-chlorophenyl)-N-(pyridin-4-ylmethyl)adamantane-1-carboxamide], the induction of apoptosis entry with Huh7 cells is on record as “failed to induce apoptosis”; in the data set with PLC-PRF5 cells, “did not substantially induce apoptosis”; with Hep 3B cells, “did not substantially induce apoptosis”; in the data set on Hep G2 cells, “failed to induce apoptosis”.
Consider `CC(C)Oc1ccc(-c2nc(-c3cccc4c3CC[C@@H]4NCCO)no2)cc1C#N` [ozanimod, 5-[3-[(1S)-1-(2-hydroxyethylamino)-2,3-dihydro-1H-inden-4-yl]-1,2,4-oxadiazol-5-yl]-2-propan-2-yloxybenzonitrile], for which the induction of apoptosis entry (in the data set on Huh7 cells; in the data set with PLC-PRF5 cells; with Hep 3B cells; in the data set with Hep G2 cells; in data set [1]) was “strongly induced apoptosis” each time. Also, in data set [2], the “induction of apoptosis of primary human hepatocytes” value is recorded as “did not induce apoptosis”. Besides, the cell viability entry in the data set on Jurkat cells is “strongly decreases viability”.
For `CCCCCc1ccc(/C=C/[C@H](O)[C@@H](CO)NC)cc1` [SK1-I, (E,2R,3S)-2-(methylamino)-5-(4-pentylphenyl)pent-4-ene-1,3-diol], the induction of apoptosis result (with Huh7 cells; in the data set on PLC-PRF5 cells; with Hep 3B cells; with Hep G2 cells; in data set [1]) was “strongly induced apoptosis” in each case. The “induction of apoptosis of primary human hepatocytes” value in data set [2] is listed as “did not induce apoptosis”. Also, in data set [3], the “killing hepatocellular carcinoma cells, compared with PF-543” value is on record as “more effective at killing hepatocellular carcinoma cells than PF-543”.
